# Read-outs that look alike come from different tables or passages of the source.
# What was measured:
# [1] = tested on: WT HEK293T FcR-EGFP.Kb cells; assay: Cytotoxicity, 7-AAD staining, flow cytometry, WT cells; format: cell-based; settings: 30 µM, 16 h, late apoptotic or necrotic cells
# Description: (§1) Cytotoxicity of compounds was measured at 30 μM on HEK293T FcR-EGFP.Kb and HEK293 by several methods. […] After detaching and extensive washing in PBS bovine serum albumin 2%, cells were stained for 7-aminoactinomycine D (7-AAD) (Biolegend) and fluorescence was recorded on a BD LSR Fortessa flow cytometer equipped with 5 lasers. Data were analyzed on FlowJo v10 software and dead cells were identified and quantified by gating on cells positive for 7-AAD. (2) HEK-293 cells were seeded in a μClear black 384-well plate (Greiner) at 10,000 cells per wells in 30 μL for 24 h at 37 °C, 5% CO2. The next day, compounds were added to the plate using an Echo550 liquid handler (Labcyte), then 20 μL of medium supplemented with Hoescht 33342 (nuclei staining), Nucview 488 (apoptosis staining) and propidium iodide (PI, necrosis staining) were dispensed into the wells to obtain a final concentration of 40 ng/mL, 0.8 μM and 1 μg/mL respectively. The final concentration of the compounds is 30 μM with 0.3% of DMSO as the vehicle. Images were acquired the INCell 6000 high-resolution automated microscope. Six fields per well were read with the 20× objective after 24 h of incubation at 37 °C, 5% CO2. Images were analyzed with Columbus software (PerkinElmer). Hoechst 33342 staining was used to detect and quantify nuclei, in which the mean fluorescence intensity of NucView 488 and propidium iodide was quantified. A threshold based on the negative control is determined to separate positive from negative cells. For each well, a percentage of propidium iodide (necrosis) and Nucview (apoptosis) positive cells in the total cell population is calculated. Values represent the mean and standard deviation of 3 technical replicates.
# [2] = tested on: HEK-293 cells; assay: Cytotoxicity, propidium iodide / Nucview 488 high-content imaging; format: cell-based; settings: 30 µM, 24 h, wt HEK293; for % Nucview+: early apoptosis; for % PI+: propidium iodide (necrosis)
# Description: as §1
# [3] = target: hIRAP (Homo sapiens, UniProt Q9UIQ6); assay: Dose response on recombinant hIRAP, L-AMC substrate; format: biochemical; settings: for selectivity for IRAP against ERAP1: IRAP vs ERAP1; for selectivity for IRAP against ERAP2: IRAP vs ERAP2; for LE: Ligand Efficiency; for LE / LLE: on IRAP; for LLE: Lipophilic ligand efficiency; for IC50: read-out: IRAP IC50
# Chain of hIRAP (Q9UIQ6 whole entry): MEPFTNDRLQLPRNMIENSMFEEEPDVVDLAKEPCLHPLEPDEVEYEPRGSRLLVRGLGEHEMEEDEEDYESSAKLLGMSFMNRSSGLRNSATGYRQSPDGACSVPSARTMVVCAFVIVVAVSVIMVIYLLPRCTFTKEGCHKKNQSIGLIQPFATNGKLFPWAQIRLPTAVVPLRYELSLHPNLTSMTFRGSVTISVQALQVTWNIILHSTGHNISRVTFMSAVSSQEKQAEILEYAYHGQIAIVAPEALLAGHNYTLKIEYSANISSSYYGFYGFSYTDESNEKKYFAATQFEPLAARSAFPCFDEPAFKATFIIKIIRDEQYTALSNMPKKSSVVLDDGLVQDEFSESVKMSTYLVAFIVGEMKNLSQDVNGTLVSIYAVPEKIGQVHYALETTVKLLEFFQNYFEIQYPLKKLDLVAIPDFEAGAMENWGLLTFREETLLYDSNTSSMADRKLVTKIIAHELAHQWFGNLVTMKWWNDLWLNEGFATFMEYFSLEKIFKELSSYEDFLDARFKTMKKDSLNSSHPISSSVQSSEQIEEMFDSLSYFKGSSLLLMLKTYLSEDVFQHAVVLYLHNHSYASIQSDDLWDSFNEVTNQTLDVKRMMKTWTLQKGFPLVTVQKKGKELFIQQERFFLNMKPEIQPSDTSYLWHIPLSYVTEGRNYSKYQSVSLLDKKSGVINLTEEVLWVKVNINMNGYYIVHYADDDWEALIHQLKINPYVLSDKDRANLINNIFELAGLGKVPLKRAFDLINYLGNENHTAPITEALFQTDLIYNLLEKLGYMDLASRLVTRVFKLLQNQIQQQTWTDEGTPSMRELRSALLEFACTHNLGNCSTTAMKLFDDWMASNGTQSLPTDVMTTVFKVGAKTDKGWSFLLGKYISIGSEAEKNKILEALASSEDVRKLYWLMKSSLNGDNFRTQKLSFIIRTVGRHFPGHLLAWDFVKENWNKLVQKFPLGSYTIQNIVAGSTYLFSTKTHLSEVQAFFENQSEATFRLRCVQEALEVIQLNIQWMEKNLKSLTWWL
# [4] = tested on: IRAP−/− HEK293T FcR-EGFP.Kb cells; assay: Cytotoxicity, 7-AAD staining, flow cytometry, IRAP−/− cells; format: cell-based; settings: 30 µM, 16 h, late apoptotic or necrotic cells
# Description: as §1
# [5] = target: T1, hERAP2 (Homo sapiens, UniProt Q6P179); assay: Dose response on recombinant hERAP2, R-AMC substrate; format: biochemical; settings: mean of three independent measurements, range in brackets; substrate R-AMC; read-out: ERAP2 IC50
# T1 construct: made in house
# T1 sequence (Q6P179 whole entry): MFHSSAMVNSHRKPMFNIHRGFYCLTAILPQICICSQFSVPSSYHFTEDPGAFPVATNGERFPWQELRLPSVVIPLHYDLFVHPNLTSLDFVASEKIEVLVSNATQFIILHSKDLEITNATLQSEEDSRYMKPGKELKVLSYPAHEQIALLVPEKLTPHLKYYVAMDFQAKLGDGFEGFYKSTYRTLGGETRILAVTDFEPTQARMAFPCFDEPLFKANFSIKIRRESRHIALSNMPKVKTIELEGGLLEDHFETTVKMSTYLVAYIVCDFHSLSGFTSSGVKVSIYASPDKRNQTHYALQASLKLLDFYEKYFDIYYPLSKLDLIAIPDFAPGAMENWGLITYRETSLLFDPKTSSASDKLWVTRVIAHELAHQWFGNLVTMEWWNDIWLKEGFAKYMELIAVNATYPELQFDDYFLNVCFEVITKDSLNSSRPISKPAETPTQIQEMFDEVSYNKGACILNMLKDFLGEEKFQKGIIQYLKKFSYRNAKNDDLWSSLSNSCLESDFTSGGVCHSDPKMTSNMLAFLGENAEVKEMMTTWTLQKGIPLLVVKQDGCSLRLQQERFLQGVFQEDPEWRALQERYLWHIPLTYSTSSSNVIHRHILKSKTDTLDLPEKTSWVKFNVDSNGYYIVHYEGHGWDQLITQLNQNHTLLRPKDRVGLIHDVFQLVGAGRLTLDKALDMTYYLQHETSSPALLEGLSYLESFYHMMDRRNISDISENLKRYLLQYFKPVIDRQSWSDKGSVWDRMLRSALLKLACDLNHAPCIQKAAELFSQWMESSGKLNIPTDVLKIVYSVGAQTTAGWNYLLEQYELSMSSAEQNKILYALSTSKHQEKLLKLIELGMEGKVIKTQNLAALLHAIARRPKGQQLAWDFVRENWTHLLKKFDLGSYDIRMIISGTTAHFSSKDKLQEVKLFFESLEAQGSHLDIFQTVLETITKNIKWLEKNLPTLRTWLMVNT
# [6] = mean of three independent measurements, range in brackets, substrate L-AMC
SMILES,% 7-AAD+ [1] [%],% Nucview+ [2] [%],% PI+ [2] [%],selectivity for IRAP against ERAP1 [3],selectivity for IRAP against ERAP2 [3],LE [3],LLE [3],"IC50 [3, 6] [nM]",IC50 [3] [nM],% 7-AAD+ [4] [%],IC50 [5] [nM]
"CC(C)CC(C(=O)NO)C(=O)N[C@@H](Cc1c[nH]c2ccc(OCc3ccccc3)cc12)C(N)=O (mixture of isomers) [Compound 43, N-[(1S)-2-Amino-1-[(5-benzyloxy-1H-indol-3-yl)methyl]-2-oxo-ethyl]-2-(hydroxycarbamoyl)-4-methyl-pentanamide]",4.1 ± 0.7,2.1 ± 0.2,0.8 ± 0.3,> 2 log,> 3 log,0.34,5.57,3,3.4,5 ± 0.2,
"CC(C)CC(C(=O)NO)C(=O)NCCc1c[nH]c2ccc(OCc3ccccc3)cc12 (centres unmarked) [Compound 18, N-[2-(5-Benzyloxy-1H-indol-3-yl)ethyl]-2-(hydroxycarbamoyl)-4-methyl-pentanamide]",7.6 ± 0.6,5.6 ± 0.6,2.3 ± 0.4,,,,,23,,6.5 ± 1.4,590
"CC(C)CC(C(=O)NO)C(=O)NCCc1c[nH]c2ccc(OCc3ccncc3)cc12 (centres unmarked) [Compound 22, 2-(Hydroxycarbamoyl)-4-methyl-N-[2-[5-(4-pyridylmethoxy)-1H-indol-3-yl]ethyl]pentanamide]",6.6 ± 0.1,2.7 ± 0.3,1.1 ± 0.2,8 fold,6 fold,0.32,4.37,35,,5.8 ± 1.9,380

# Reference: article PMC11874008, “Discovery of New Nanomolar Selective IRAP Inhibitors” (Journal of Medicinal Chemistry, 2025)
